Test results: patent US7074742B2, “Pyridinyl amides and imides for use as fungicides” (E. I. du Pont de Nemours and Company, priority 2000, dated 2006)
Marks after values point to notes of the source that are not given here.

Assays:
Type in all cases: in vivo
Phytophthora infestans = details: preventive spray on tomato seedlings; 100 = 100% disease control, 0 = no control; concentration not marked in table
Puccinia recondita = experiment: TEST B: preventive spray on wheat seedlings, wheat leaf rust, disease rating; details: 100 = 100% disease control, 0 = no control, concentration not marked in table
[1] = system: Erysiphe graminis f. sp. tritici; experiment: TEST A: preventive spray on wheat seedlings, wheat powdery mildew, disease rating; details: 100 = 100% disease control, 0 = no control relative to controls, concentration not marked in table
Pyricularia oryzae = details: preventive spray on rice seedlings; 100 = 100% disease control, 0 = no control; concentration not marked in table
Plasmopara viticola [2] = experiment: TEST E: preventive spray on grape seedlings, grape downy mildew, disease rating
Plasmopara viticola [3] = experiment: TEST G: curative spray on inoculated grape seedlings, grape downy mildew, disease rating; details: for Test G disease control rating (grape downy mildew, curative): curative spray on inoculated grape seedlings; for curative utility: curative (post-infection) use, especially for grape downy mildew, statement in words
[4] = 100 = 100% disease control, 0 = no control, concentration not marked in table
[5] = concentration not marked in table

Row | Structure (SMILES) | Test D disease control rating (potato and tomato late blight) (Phytophthora infestans) [%] | Test B disease control rating (wheat leaf rust) (Puccinia recondita) [%] | Test A disease control rating (wheat powdery mildew) [1] [%] | Test C disease control rating (rice blast) (Pyricularia oryzae) [%] | Test E disease control rating (grape downy mildew) (Plasmopara viticola [2]; [4]) [%] | Test G disease control rating (grape downy mildew, curative) (Plasmopara viticola [3]; 20 ppm) | Test E disease control rating (grape downy mildew) (Plasmopara viticola [2]; 100 ppm) | curative utility (Plasmopara viticola [3]) | Test G disease control rating (grape downy mildew, curative) (Plasmopara viticola [3]; [5]) [%] | Test G disease control rating (grape downy mildew, curative) (Plasmopara viticola [3]; 100 ppm)
1 | O=C(NCc1ncc(C(F)(F)F)cc1Cl)c1ccc(C(F)(F)F)nc1-c1ccccc1 [Cmpd 24] | 25 | 0 | 0 | 7 | 8 |  |  |  |  | 
2 | O=C(NCc1ncc(C(F)(F)F)cc1Cl)c1cccnc1Oc1ccccc1 [Cmpd 15] | 7 | 38 | 0 | 30 | 8 |  |  |  |  | 
3 | O=C(NCc1ncc(C(F)(F)F)cc1Cl)c1cccnc1Nc1cccc(C(F)(F)F)c1 [Cmpd 27] | 32 | 0 | 0 | 0 | 16 |  |  |  |  | 
4 | O=C(NCc1ncc(C(F)(F)F)cc1Cl)c1cnc(Cl)c(Cl)c1 [Cmpd 7] |  | 0 | 0 |  |  |  |  |  |  | 
5 | O=C(NCc1ncc(C(F)(F)F)cc1Cl)c1cncc(C#Cc2ccccc2)c1 [Cmpd 17] | 25 | 0 | 13 | 0 | 0 |  |  |  |  | 
6 | O=C(NCc1ncc(C(F)(F)F)cc1Cl)c1ccc(C(F)(F)F)nc1Br [Cmpd 18] | 32 | 9 | 0 | 80 | 0 |  |  |  |  | 
7 | Cc1nc(C(F)(F)C(F)(F)F)ccc1C(=O)NCc1ncc(C(F)(F)F)cc1Cl [Cmpd 21] | 16 | 68 | 69 | 88 | 8 |  |  |  |  | 
8 | CC(NC(=O)c1c(Cl)ccnc1Cl)c1ncc(C(F)(F)F)cc1Cl (single isomer, unassigned) [Cmpd 38] |  |  |  |  |  | 0** % | 69* % |  |  | 
9 | O=C(NCc1ncc(C(F)(F)F)cc1Cl)c1cncc(Br)c1 [Cmpd 10] | 16 | 9 | 0 | 74 | 0 |  |  |  |  | 
10 | Cc1cc(Cl)c(C(=O)NCc2ncc(C(F)(F)F)cc2Cl)c(Cl)n1 [Compound 8, 2,4-Dichloro-N-[[3-chloro-5-(trifluoromethyl)-2-pyridinyl]methyl]-6-methyl-3-pyridinecarboxamide] | 100 | 8 | 0 |  | 100 |  |  | significant curative utility | 96 | 
11 | O=C(NCc1ncc(C(F)(F)F)cc1Cl)c1c(Cl)cncc1Cl [Compound 35] | 100 | 30 | 0 |  | 100 |  |  | significant curative utility |  | 100* %
12 | Cc1nc(C(F)(F)F)ccc1C(=O)NCc1ncc(C(F)(F)F)cc1Cl [Cmpd 20] | 25 | 28 | 0 | 87 | 8 |  |  |  |  | 
13 | Cc1ncccc1C(=O)NCc1ccc(Oc2cccc(C(F)(F)F)c2)nc1 [Cmpd 33] | 71 |  | 91 |  |  |  |  |  |  | 
14 | O=C(NCc1ncc(C(F)(F)F)cc1Cl)c1cccnc1Sc1ccccc1 [Cmpd 16] | 34 | 9 | 0 | 100 | 8 |  |  |  |  | 
15 | COc1ncccc1C(=O)NCc1ncc(C(F)(F)F)cc1Cl [Cmpd 12] | 7 | 19 | 0 | 0 | 24 |  |  |  |  | 
16 | O=C(NCc1ncc(C(F)(F)F)cc1Cl)c1ccc(C(F)(F)F)nc1 [Cmpd 26] | 25 | 32 | 0 | 0 | 0 |  |  |  |  | 

Row | Structure (SMILES) | Test D disease control rating (potato and tomato late blight) (Phytophthora infestans) [%] | Test B disease control rating (wheat leaf rust) (Puccinia recondita) [%] | Test A disease control rating (wheat powdery mildew) [1] [%] | Test C disease control rating (rice blast) (Pyricularia oryzae) [%] | Test E disease control rating (grape downy mildew) (Plasmopara viticola [2]; [4]) [%] | Test G disease control rating (grape downy mildew, curative) (Plasmopara viticola [3]; 20 ppm) | Test E disease control rating (grape downy mildew) (Plasmopara viticola [2]; 100 ppm) | curative utility (Plasmopara viticola [3]) | Test G disease control rating (grape downy mildew, curative) (Plasmopara viticola [3]; [5]) [%] | Test G disease control rating (grape downy mildew, curative) (Plasmopara viticola [3]; 100 ppm)
17 | Nc1ncccc1C(=O)NCc1ncc(C(F)(F)F)cc1Cl [Cmpd 9] | 7 | 28 | 0 | 0 | 0 |  |  |  |  | 
18 | COCc1nc(C(F)(F)F)ccc1C(=O)NCc1ncc(C(F)(F)F)cc1Cl [Cmpd 23] | 32 | 9 | 72 | 7 | 8 |  |  |  |  | 
19 | C[C@@H](NC(=O)c1c(Cl)ccnc1Cl)c1ncc(C(F)(F)F)cc1Cl [Compound 31, 2,4-dichloro-N-[(1R)-1-[3-chloro-5-(trifluoromethyl)-2-pyridinyl]ethyl]-3-pyridinecarboxamide] | 100 |  |  | 0 | 100 | 100** % |  | significant curative utility |  | 
20 | Cc1cnc(C(=O)NCc2ncc(C(F)(F)F)cc2Cl)c(Cl)c1 [Compound 2] | 100 |  | 0 |  |  |  |  | significant curative utility | 99 | 
21 | CC(NC(=O)c1c(Cl)ccnc1Cl)c1ncc(C(F)(F)F)cc1Cl (racemic) [Compound 30] | 100 |  |  | 0 | 100 |  |  | significant curative utility |  | 100* %
22 | Cc1ccc(C(=O)NCc2ncc(C(F)(F)F)cc2Cl)c(Cl)n1 [Cmpd 14] | 100 | 19 | 0 | 90 | 98 |  |  |  |  | 
23 | CCOc1ncccc1C(=O)NCc1ncc(C(F)(F)F)cc1Cl [Cmpd 13] | 3 | 9 | 0 | 0 | 23 |  |  |  |  | 
24 | O=C(NCc1ncc(C(F)(F)F)cc1Cl)c1cccnc1Cl [Compound 5] |  | 19 |  |  | 98 |  |  | significant curative utility | 99 | 
25 | Cc1cnc(Cl)c(C(=O)NCc2ncc(C(F)(F)F)cc2Cl)c1Cl [Compound 29] | 100 |  |  | 0 | 100 |  |  | significant curative utility |  | 100* %
26 | Cc1ncccc1C(=O)NCc1ccc(Cl)nc1 [Cmpd 32] | 32 | 0 | 0 | 0 |  |  |  |  |  | 
27 | COc1nc(C(F)(F)F)ccc1C(=O)NCc1ncc(C(F)(F)F)cc1Cl [Cmpd 22] | 7 | 0 | 0 | 0 | 0 |  |  |  |  | 
28 | Cc1ccc(C(=O)NCc2ncc(C(F)(F)F)cc2Cl)c(O)n1 [Cmpd 19] | 7 | 9 | 0 | 0 | 8 |  |  |  |  | 
29 | COc1cc(C(=O)NCc2ncc(C(F)(F)F)cc2Cl)cc(Cl)n1 [Cmpd 34] | 31 | 44 | 0 |  |  |  |  |  |  | 
30 | O=C(NCc1ncc(C(F)(F)F)cc1Cl)c1cccnc1O [Cmpd 11] | 7 | 9 | 0 | 0 | 8 |  |  |  |  | 
31 | Cc1nc(Cl)ccc1C(=O)NCc1ncc(C(F)(F)F)cc1Cl [Cmpd 25] | 79 | 9 | 0 | 13 | 16 |  |  |  |  | 
